How the values were obtained:
Format in all cases: physicochemical
[1] = Stability of monatin in lemon lime matrix under visible light (Example 2)
Description: (§1) High-potency sweetener monatin was evaluated for stability to sunlight exposure when formulated into a beverage packaged in PET packaging (bottle) with and without a UV barrier or in a dark-colored PET packaging. This study was designed to evaluate the stability of RR stereoisomer of monatin under normal visible light and under ultraviolet light in the Atlas sun-test chamber using normal PET bottles, PET packaging with a UV barrier and dark PET packaging. For this purpose monatin solution was made in a lemon lime carbonated beverage matrix without any flavor added.
(§2) The RR isomer of monatin was used for the present study after satisfactory HPLC and LC-MS data analyses confirmed that this sample greater than 95% pure. A lemon lime beverage matrix without flavor was used as the matrix base. The concentration of monatin in the matrix was 30 ppm.
(§3) Due to lack of any RR-monatin standard, its stereoisomer, SS-monatin was used for HPLC calibration curve preparation as it appears at the same retention time as RR-monatin.
(§4) Quantitative analysis of monatin via UV detection in LC-MS was done for all the samples. The methodology employed a 12% acetonitrile (solvent A) in 50 mM ammonium formate (pH 4.0, solvent B) for 5 min followed by a linear gradient to 34% acetonitrile over 5 min; Detection: UV @278 nm].
(§5) 1) regular PET bottles, 300 mL or 8 Oz (bottle type A). 2) PET bottles with a UV barrier, 600 mL or 16 Oz, fresh un-used bottle* (bottle type B). * It was shown that the UV barrier capacity decreased after one use in the commercially bought 20 Oz PET bottles with a UV barrier (See the UV scan data in FIG. 1). 3) dark-colored PET bottles (bottle type C). UV light source: Atlas Sun-test chamber. Under program 1 of sun-test chamber, 6 hr of exposure is equal to one day of sun-light exposure in Arizona or 400 Langley at 40° C. Control Experiment: UV irradiation by using only a lemon lime matrix (no monatin added) in regular PET bottles and running the sun-test chamber for four days equivalent exposure was carried out. The purpose of this experiment was to make sure no artifact arises from lemon lime matrix in the monatin absorption region. No new signals were identified. 13 bottles were used in the monatin-lemon-lime matrix experiments: 1 regular PET at zero time and 3 regular PET bottles; 2 PET bottles with a UV barrier bottles and 7 dark-colored PET bottles. Zero time sample protocol: 330 mL PET bottle was filled up to ⅓^rd full, flushed with nitrogen, covered with foil and then kept at 4° C. Sample aliquot protocol: 5 mL was taken out in a 20 mL opaque glass scintillation vial. Both vial and experimental bottle were flushed with nitrogen. The vial was covered with foil and kept at 4° C.
(§6) LC-MS analysis was carried out on all the samples in the same day as their maturation. A new monatin calibration curve was made every day with the SS-monatin sample.
For these experiments, visible light is the normal laboratory light which was left on all the time during the experiment.

[2] = Stability of monatin in lemon lime matrix under ultraviolet light, Atlas sun-test chamber (Example 2); conditions: for monatin sample degraded: four days equivalent of ultraviolet light exposure (24 hours in UV chamber)
Description: as §1, §2, §3, §4, §5, §6
For these experiments samples were kept in the Atlas sun-test chamber where each 6 hr exposure was equivalent to one day of sun exposure in Arizona (400 Langley). […] In particular, it was noted that under UV light in regular PET, monatin degrades by 70% in just one day's exposure.

[3] = Visual analysis of UV and light exposed monatin samples by 6 panelists; set-up: key: (+) = colorless; (−) = color change (color noted); conditions: 30 PPM in lemon lime matrix pH 3.35, panelists 1-6
Description: A survey of odor and visual analysis of the UV and light exposed samples of the monatin samples was conducted by 6 panelists. Samples for analysis were solution of monatin in a lemon lime matrix without flavor at pH 3.35 (30 PPM monatin) exposed to visible for three days or UV light for 24 hours (equivalent of four days sun exposure).

[4] = 0 hours of exposure in UV chamber
[5] = 6 hours of exposure in UV chamber
[6] = 12 hours of exposure in UV chamber
[7] = 18 hours of exposure in UV chamber
[8] = 24 hours of exposure in UV chamber

degrades upon exposure to visible light ([1]; lemon-lime matrix, any of the three types of bottles, visible light for up to 74 hours): less than 10%
Conc. in mg/L RR-Monatin in Lemon Lime matrix UV barrier PET Bottle (600 mL) ([1]; visible light 0 hours): 31.1 mg/L
Conc. in mg/L RR-Monatin in Lemon Lime matrix in Normal PET Bottle (330 mL) ([1]; visible light 0 hours): 31.1 mg/L
Conc. in mg/L RR-Monatin in Lemon Lime matrix in dark-colored PET Bottle (75 mL) ([1]; visible light 0 hours): 31.1 mg/L
Conc. in mg/L RR-Monatin in Lemon Lime matrix UV barrier PET Bottle (600 mL) ([1]; visible light 5 hours): 30.9 mg/L
Conc. in mg/L RR-Monatin in Lemon Lime matrix in Normal PET Bottle (330 mL) ([1]; visible light 5 hours): 31.0 mg/L
Conc. in mg/L RR-Monatin in Lemon Lime matrix in dark-colored PET Bottle (75 mL) ([1]; visible light 5 hours): 30.9 mg/L
Conc. in mg/L RR-Monatin in Lemon Lime matrix UV barrier PET Bottle (600 mL) ([1]; visible light 8 hours): 30.4 mg/L
Conc. in mg/L RR-Monatin in Lemon Lime matrix in Normal PET Bottle (330 mL) ([1]; visible light 8 hours): 30.4 mg/L
Conc. in mg/L RR-Monatin in Lemon Lime matrix in dark-colored PET Bottle (75 mL) ([1]; visible light 8 hours): 30.4 mg/L
Conc. in mg/L RR-Monatin in Lemon Lime matrix UV barrier PET Bottle (600 mL) ([1]; visible light 26 hours): 29.8 mg/L
Conc. in mg/L RR-Monatin in Lemon Lime matrix in Normal PET Bottle (330 mL) ([1]; visible light 26 hours): 29.7 mg/L
Conc. in mg/L RR-Monatin in Lemon Lime matrix in dark-colored PET Bottle (75 mL) ([1]; visible light 26 hours): 29.9 mg/L
Conc. in mg/L RR-Monatin in Lemon Lime matrix UV barrier PET Bottle (600 mL) ([1]; visible light 31 hours): 29.5 mg/L
Conc. in mg/L RR-Monatin in Lemon Lime matrix in Normal PET Bottle (330 mL) ([1]; visible light 31 hours): 29.7 mg/L
Conc. in mg/L RR-Monatin in Lemon Lime matrix in dark-colored PET Bottle (75 mL) ([1]; visible light 31 hours): 29.7 mg/L
Conc. in mg/L RR-Monatin in Lemon Lime matrix UV barrier PET Bottle (600 mL) ([1]; visible light 49 hours): 28.9 mg/L
Conc. in mg/L RR-Monatin in Lemon Lime matrix in Normal PET Bottle (330 mL) ([1]; visible light 49 hours): 29.2 mg/L
Conc. in mg/L RR-Monatin in Lemon Lime matrix in dark-colored PET Bottle (75 mL) ([1]; visible light 49 hours): 29.3 mg/L
Conc. in mg/L RR-Monatin in Lemon Lime matrix UV barrier PET Bottle (600 mL) ([1]; visible light 56 hours): 29.2 mg/L
Conc. in mg/L RR-Monatin in Lemon Lime matrix in Normal PET Bottle (330 mL) ([1]; visible light 56 hours): 29.1 mg/L
Conc. in mg/L RR-Monatin in Lemon Lime matrix in dark-colored PET Bottle (75 mL) ([1]; visible light 56 hours): 29.2 mg/L
Conc. in mg/L RR-Monatin in Lemon Lime matrix UV barrier PET Bottle (600 mL) ([1]; visible light 74 hours): 28.7 mg/L
Conc. in mg/L RR-Monatin in Lemon Lime matrix in Normal PET Bottle (330 mL) ([1]; visible light 74 hours): 28.8 mg/L
Conc. in mg/L RR-Monatin in Lemon Lime matrix in dark-colored PET Bottle (75 mL) ([1]; visible light 74 hours): 28.9 mg/L
Conc. in mg/L RR-Monatin in Lemon Lime matrix in Normal PET Bottle (330 mL) [2, 4]: 31.1 mg/L
Conc. in mg/L RR-Monatin in Lemon Lime matrix in UV barrier PET Bottle (600 mL) [2, 4]: 31.1 mg/L
Conc. in mg/L RR-Monatin in Lemon Lime matrix in dark-colored PET Bottle (75 mL) [2, 4]: 31.1 mg/L
Conc. in mg/L RR-Monatin in Lemon Lime matrix in Normal PET Bottle (330 mL) [2, 5]: 9.0 mg/L
Conc. in mg/L RR-Monatin in Lemon Lime matrix in UV barrier PET Bottle (600 mL) [2, 5]: 27.6 mg/L
Conc. in mg/L RR-Monatin in Lemon Lime matrix in dark-colored PET Bottle (75 mL) [2, 5]: 29.2 mg/L
Conc. in mg/L RR-Monatin in Lemon Lime matrix in Normal PET Bottle (330 mL) [2, 6]: 2.1 mg/L
Conc. in mg/L RR-Monatin in Lemon Lime matrix in UV barrier PET Bottle (600 mL) [2, 6]: 22.4 mg/L
Conc. in mg/L RR-Monatin in Lemon Lime matrix in dark-colored PET Bottle (75 mL) [2, 6]: 29.1 mg/L
Conc. in mg/L RR-Monatin in Lemon Lime matrix in Normal PET Bottle (330 mL) [2, 7]: 0.3 mg/L
Conc. in mg/L RR-Monatin in Lemon Lime matrix in UV barrier PET Bottle (600 mL) [2, 7]: 9.8 mg/L
Conc. in mg/L RR-Monatin in Lemon Lime matrix in dark-colored PET Bottle (75 mL) [2, 7]: 29.0 mg/L
Conc. in mg/L RR-Monatin in Lemon Lime matrix in Normal PET Bottle (330 mL) [2, 8]: 0.0 mg/L
Conc. in mg/L RR-Monatin in Lemon Lime matrix in UV barrier PET Bottle (600 mL) [2, 8]: 3.6 mg/L
Conc. in mg/L RR-Monatin in Lemon Lime matrix in dark-colored PET Bottle (75 mL) [2, 8]: 28.6 mg/L
degradation upon exposure to UV light ([2]; Regular PET bottles and PET with UV barrier bottles): did not prevent degradation of monatin
monatin sample degraded ([2]; UV barrier PET bottle): ~90%
monatin degrades ([2]; UV light, regular PET, one day's exposure): 70%
monatin sample degraded ([2]; dark-colored PET bottle): less than 10%
Visual analysis ([3]; PET with UV barrier, UV light 24 hours): −
Visual analysis ([3]; PET with UV barrier, visible light three days): +
Visual analysis ([3]; Regular PET, UV light 24 hours): −
Visual analysis ([3]; Regular PET, visible light three days): +
SMILES: NC(CC(O)(Cc1c[nH]c2ccccc12)C(=O)O)C(=O)O (stereo not drawn) [Monatin, 2-amino-4-carboxy-4-hydroxy-5-(3-indolyl)-pentanoic acid]
degradation, UV light versus visible light ([2]; lemon-lime matrix): degrade faster upon UV light exposure than upon visible light exposure
degradation upon exposure to UV light ([2]; monatin solution in dark-colored PET bottles): prevented most of the monatin from degrading
monatin sample degraded ([2]; normal PET bottle): all of the monatin sample in the normal PET bottle had degraded
